Experimental data: patent US11197856B2, “Bicyclic compounds and methods for their use in treating autism” (priority 2013, dated 2021)

Columns and labels:
cerebellar explants = experiment: Cerebellar explants, glutamate/3-nitropropionic acid neurotoxicity; assay type: cell-based, Wistar rats
Description: Cover slips were placed into a large Petri dish and washed in 70% alcohol for 5 minutes, then washed with Millipore H2O. The cover slips were air dried, and coated with Poly-D-Lysine (1 mg/ml stock solution in PBS, 90-100 μl) for 2 hours at 34° C.
Postnatal day 8 Wistar rats were used for the study. The rats were sacrificed and placed in ice for 1 minute, decapitated and the cerebellum removed and placed on ice. Cerebellum tissue was placed in 1 ml of 0.65% glucose-supplemented PBS (10 μl 65% stock D (+)glucose/1 ml PBS) in a large Petri dish, chopped up into smaller sections and triturated with a 1 ml insulin syringe via a 23 G (0.4 mm) needle, and then squirted back into the glucose solution in the large Petri dish. The tissue was sieved through (125 μm pore size gauze) and centrifuged (2 minutes at 60 g) twice to exchange the medium into serum-free BSA-supplemented START V medium (Biochrom, Germany). The second centrifugation step was done with 1 ml of START V medium. The microexplants were reconstituted into 500 μl of START V medium and put on ice.
Two hours after PDL-coating, the slides were washed with Millipore H2O and air dried. Each slide was placed into a small Petri dish (diameter: 35 mm) and 40 μl of START V/cell suspension was added. The tissue was incubated for 2 hours at 34° C. (settlement period). START V-medium (1 ml) was then added to the Petri dish and cultivated at 34° C. in the presence of 5% CO2 in air at 100% humidity for 48 hours.
For the study, certain explant cultures were exposed to vehicle (PBS) only. In the first study (Study 1) 10 μl of toxin 1 (L-glutamate—100 mM in Millipore water; final concentration; 1 mM) and 10 μl of toxin 2 (3-nitropropionic acid—50 mM—pH 7—in Millipore water, final concentration: 0.5 mM) was applied simultaneously with the drug to be tested ([…]). In each case, the drugs were left in contact with the explants for the duration of the study.
After explants were exposed to drugs for the study period, cells were then rinsed in PBS and then fixed in increasing concentrations of paraformaldehyde (500 μl of 0.4% PFA was applied; then 1.2% PFA; then 3% PFA and finally 4% PFA (each fixation step: 2-3 minutes). Finally, the microexplants were rinsed in PBS.
Neurons in the explants were then evaluated for morphology (presence of neurites) and counted as live cells per microscopic field. Four fields displaying highest cell density were counted per cover slip and the data presented as mean±standard error of the mean (SEM); n=4 each. Statistical significance was evaluated by using the non-paired Student's t-test.

MeCP2-/y mice = experiment: Heart rate measurements (tail clip sensor); assay type: in vivo; conditions: 8 weeks old
Description: Real time cardiac pulse rate is measured using a tail clip sensor (Mouse OX Oximeter-Oakmont, Pa.). Mice are not anesthetized but physically restrained in a fitted open plastic tube. Prior to the recording session the tube is placed overnight in the cages housing the experimental animals to allow habituation. Body temperature is maintained at ˜82-84° F. throughout the recording time. We record 3 trials of 15 minutes for each mouse, mice are 8 weeks old and treated with vehicle or cG-2-AllylP from PIS.
To examine heart rate abnormalities in MeCP2−/y mice and the effect of cG-2-AllylP treatment, we monitor real time cardiac pulse rate in non-anesthetized wild type and MeCP2−/y animals treated with vehicle or cG-2-AllylP.

AMPA receptors GluR1 = experiment: AMPA glutamate receptor-1 immunohistochemical staining of hippocampus; assay type: in vivo, male Wistar rats
Description: Aged rats (male Wistar rats, 18-20 months old) were divided into four groups: two vehicle-treated (groups 1 and 3) and two G-2-AllylP treated (groups 2 and 4) (all groups n=6-8). Cyclic G-2-AllylP was synthesised by the Department of Medicinal Chemistry and dissolved in normal saline before the treatment. On day 1 a single dose of cyclic G-2-AllylP was given centrally (20 ng/animal, i.c.v.) to the animals in groups 2 and 4; saline was administered to groups 1 and 3. The memory tests using Novel Object Recognition Test started either on day 3 (groups 1 and 2) or 24 (groups 3 and 4) after the treatment. On the completion of the NORT, the rats were killed with an overdose of sodium pentobarbital and were perfused transcardially with normal saline followed by 10% formalin. Tissues collected at day 7 in groups 1 and 2, and at day 28 from groups 3 and 4. The brains were kept in the same fixative for a minimum of 2 days before being processed using a standard paraffin embedding procedure. Briefly, small blocks (10×10×3 mm) of tissue were fixed for up to 24 hrs. The blocks were then infiltrated and embedded with paraffin and cut in ribbons and mounted on slides. […]
The following antibodies were used: • i) primary rabbit antibody to NMDA NR1 subunit, at 1:200 concentration in buffer, incubated for 48 hrs (Chemicon—AB1516), followed by Sigma fluorescent secondary antibody (alexaFluor 394), at 1:200 dilution, incubated for 24 hours at 40C. • ii) primary antibody to AMPA GluR1 subunit, at 1:30 concentration in buffer, incubated for 48 hrs (Chemicon—AB1504) followed by 3,3′-diaminobenzidine (DAB) at 1:200 dilution, incubated for 24 hours at 40C. • iii) Primary antibody to mSynaptophysin (Sigma—S5768), at 1:200 concentration in buffer, followed by DAB at 1:200 dilution, incubated for 24 hours at 40C. • iv) Primary antibody to rKrox-24 (Santa Cruz—catalogue number SC-189) at 1:200 concentration in the buffer, followed by anti-rabbit secondary antibody at concentration of 1:200 dilution, incubated for 24 hours at 40C. • y) Antibodies were detected using light microscopy. […]

Structure (SMILES): C=CC[C@]12CCCN1C(=O)CNC2=O [cG-2-AllylP, (8aS)-Allyl-hexahydropyrrolo[1,2-a]pyrazine-1,4-dione]
- numbers of cells having neurites (cerebellar explants; administered simultaneously with glutamate): significantly increased the numbers of cells having neurites in a dose-dependent manner
- glutamate-induced neurotoxicity (cerebellar explants; low doses (cG-2-AllylP: 100 pm to 10 nm)): significant decrease in glutamate-induced neurotoxicity
- occurrence of irregular heart rate with a lower average rate (MeCP2-/y mice): significantly reduced
- number of AMPA receptors GluR1 (AMPA receptors GluR1; CA1 granular cell layer, day 28): significant increase in the number of AMPA receptors
- number of AMPA receptors GluR1 (AMPA receptors GluR1; CA1 stratum oriens, day 28): significant increase in the number of AMPA receptors
- number of AMPA receptors GluR1 (AMPA receptors GluR1; CA3, day 7 or 28, 20 ng/animal i.c.v.): no change in the number of receptors
